US8796292B2, “Selective antibacterials for clostridium difficile infections” (GLSynthesis Inc., priority 2009, dated 2014)
≈ marks a conversion by molar mass, not a printed value. Like-named read-outs stand apart in the source and are kept apart here.

Tests used:
C. difficile = test: agar dilution MIC assay of anaerobic bacteria; type: cell-based, Clostridium difficile; settings: for MIC: Clostridioides difficile, read-out: MIC
Procedure, shortened: (§1)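 Frozen isolates were subcultured anaerobically on Supplemented Brucella Agar, then inoculated onto manually prepared drug-supplemented agar plates. These were incubated 48 hours at 35° C. under 5% hydrogen, 5% carbon dioxide and 90% nitrogen, and MIC was recorded in μg/ml.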

C. diff. (ATCC43255) = test: clindamycin-induced C. diff. infection model in Syrian golden hamsters; type: in vivo; settings: for % Survivors at 120 hr / Survivors at 24 hr / Survivors at 48 hr / Survivors at 66 hr / Survivors at 72 hr / Survivors at 96 hr: n = 6 hamsters
Text: Compound 359E was given orally as a suspension in 1% carboxymethylcellulose to Syrian Golden hamsters, pretreated subcutaneously with clindamycin and infected orally with C. diff. (ATCC43255) as described in Table 5.

E. lentum = test: agar dilution MIC assay of anaerobic bacteria; type: cell-based, Eubacterium lentum; settings: Eggerthella lenta; Eu. Lentum, Strain no. 1274 (ATCC strain), Table 3; read-out: MIC
Procedure, shortened: as §1

Bi. brevi = test: agar dilution MIC assay of anaerobic bacteria; type: cell-based, Bifidobacterium brevi; settings: Bifidobacterium breve; Bi. Breve, Strain no. 3967 (ATCC strain), Table 3
Procedure, shortened: as §1

L. casei = test: agar dilution MIC assay of anaerobic bacteria; type: cell-based, Lactobacillus casei; settings: Lacticaseibacillus casei, Strain no. 1722 (ATCC strain), Table 3
Procedure, shortened: as §1

Bi. longum = test: agar dilution MIC assay of anaerobic bacteria; type: cell-based, Bifidobacterium longum; settings: Bifidobacterium longum; Bi. Longum, Strain no. 3968 (ATCC strain), Table 3; read-out: MIC
Procedure, shortened: as §1

L. acidophilus = test: agar dilution MIC assay of anaerobic bacteria; type: cell-based; settings: Lactobacillus acidophilus, Strain no. 0681, Table 3
Procedure, shortened: as §1

Ba. fragilis = test: agar dilution MIC assay of anaerobic bacteria; type: cell-based; settings: Bacteroides fragilis, B. fragilis
Procedure, shortened: as §1

## O=c1[nH]c(NCc2ccc(Cl)c(Cl)c2)nc2ncn(CCCCCN3CCOCC3)c12 [Compound 359E, 7-[5-(N-morpholinyl)pentyl]-2-(3,4-dichlorobenzylamino)-6-oxopurine]
C. difficile; C. diff. Strain no. 18285, Table 4
  MIC: 8 µg/mL (≈ 17.2 µM)
C. difficile; C. diff. Strain no. 19265, Table 4
  MIC: 8 µg/mL (≈ 17.2 µM)
C. difficile; C. diff. Strain no. 19273, Table 4
  MIC: 8 µg/mL (≈ 17.2 µM)
C. difficile; C. diff. Strain no. 19281, Table 4
  MIC: 8 µg/mL (≈ 17.2 µM)
C. difficile; C. diff. Strain no. 19291, Table 4
  MIC: 4 µg/mL (≈ 8.6 µM)
C. difficile; C. diff. Strain no. 19369, Table 4
  MIC: 8 µg/mL (≈ 17.2 µM)
C. difficile; C. diff. Strain no. 19382, Table 4
  MIC: 2 µg/mL (≈ 4.3 µM)
C. difficile; C. diff. Strain no. 19540, Table 4
  MIC: 4 µg/mL (≈ 8.6 µM)
C. difficile; C. diff. Strain no. 19580, Table 4
  MIC: 2 µg/mL (≈ 4.3 µM)
C. difficile; C. diff. Strain no. 19680, Table 4
  MIC: 8 µg/mL (≈ 17.2 µM)
C. difficile; C. diff. Strain no. 19681, Table 4
  MIC: 8 µg/mL (≈ 17.2 µM)
C. difficile; C. diff. Strain no. 19683, Table 4
  MIC: 8 µg/mL (≈ 17.2 µM)
C. difficile; C. diff. Strain no. 19687, Table 4
  MIC: 8 µg/mL (≈ 17.2 µM)
C. difficile; C. diff. Strain no. 20066, Table 4
  MIC: 8 µg/mL (≈ 17.2 µM)
C. difficile; C. diff. Strain no. 20152, Table 4
  MIC: 8 µg/mL (≈ 17.2 µM)
C. difficile; C. diff. Strain no. 20307, Table 4
  MIC: 8 µg/mL (≈ 17.2 µM)
C. difficile; C. diff. Strain no. 20494, Table 4
  MIC: 8 µg/mL (≈ 17.2 µM)
C. difficile; C. diff. Strain no. 20680, Table 4
  MIC: 8 µg/mL (≈ 17.2 µM)
C. difficile; C. diff. Strain no. 20934, Table 4
  MIC: 2 µg/mL (≈ 4.3 µM)
C. difficile; C. diff. Strain no. 21099, Table 4
  MIC: 8 µg/mL (≈ 17.2 µM)
C. difficile; C. diff., Micromyx Number 3579, Table 2
  MIC: 2 µg/mL (≈ 4.3 µM)
C. difficile; C. diff., Micromyx Number 3580, Table 2
  MIC: 2 µg/mL (≈ 4.3 µM)
C. difficile; C. diff., Micromyx Number 3581, Table 2
  MIC: 2 µg/mL (≈ 4.3 µM)
C. difficile; C. diff., Micromyx Number 3582 (ATCC strain), Table 2
  MIC: 2 µg/mL (≈ 4.3 µM)
C. difficile; C. diff., Strain no. 3580, Table 3
  MIC: 4 µg/mL (≈ 8.6 µM)
C. difficile; C. diff., Strain no. 3581, Table 3
  MIC: 2 µg/mL (≈ 4.3 µM)
C. difficile; C. diff., Strain no. 3582, Table 3
  MIC: 8 µg/mL (≈ 17.2 µM)
C. difficile; C. diff., Strain no. 3584, Table 3
  MIC: 2 µg/mL (≈ 4.3 µM)
C. difficile; C. diff., Strain no. 3585, Table 3
  MIC: 4 µg/mL (≈ 8.6 µM)
C. difficile; C. diff., Strain no. 3586, Table 3
  MIC: 2 µg/mL (≈ 4.3 µM)
C. difficile; C. diff., Strain no. 3587, Table 3
  MIC: 4 µg/mL (≈ 8.6 µM)
C. difficile; C. diff., Strain no. 3588, Table 3
  MIC: 0.5 µg/mL (≈ 1.07 µM)
C. difficile; C. diff., Strain no. 3589, Table 3
  MIC: 4 µg/mL (≈ 8.6 µM)
C. difficile; C. diff., Strain no. 4381 (ATCC strain), Table 3
  MIC: 2 µg/mL (≈ 4.3 µM)
C. difficile; summary of MIC panels, Tables 1 and 3
  potency and selectivity against C. diff. versus other Gram-positive anaerobes (in words): best profile
C. diff. (ATCC43255); 25 mg/kg PO bid for 3 days
  % Survivors at 120 hr: 100%
  Survivors at 24 hr: 6
  Survivors at 48 hr: 6
  Survivors at 66 hr: 6
  Survivors at 72 hr: 6
  Survivors at 96 hr: 6
C. diff. (ATCC43255); 50 mg/kg PO bid for 3 days
  % Survivors at 120 hr: 100%
  Survivors at 24 hr: 6
  Survivors at 48 hr: 6
  Survivors at 66 hr: 6
  Survivors at 72 hr: 6
  Survivors at 96 hr: 6
C. diff. (ATCC43255); oral suspension in 1% carboxymethylcellulose, twice daily
  protection from lethal infection with C. diff. (in words): protected hamsters from lethal infection
E. lentum
  MIC: > 32 µg/mL
Bi. brevi
  MIC: > 32 µg/mL
L. casei
  MIC: 16 µg/mL (≈ 34.4 µM)
Bi. longum
  MIC: > 32 µg/mL
L. acidophilus
  MIC: 2 µg/mL (≈ 4.3 µM)
Ba. fragilis; Micromyx Number 0123 (ATCC strain), Table 2
  MIC: > 32 µg/mL
Ba. fragilis; Strain no. 0123 (ATCC strain), Gram-negative (control), Table 3
  MIC: > 32 µg/mL
